According to ChEMBL document CHEMBL1158136, “Ashwagandhanolide, a bioactive dimeric thiowithanolide isolated from the roots of Withania somnifera” (2006):

What was measured:
[1] = target: T1, Prostaglandin G/H synthase 2 (Homo sapiens) (UniProt P35354); test: Inhibition of COX2 at 100 ug/mL
T1 sequence (whole entry): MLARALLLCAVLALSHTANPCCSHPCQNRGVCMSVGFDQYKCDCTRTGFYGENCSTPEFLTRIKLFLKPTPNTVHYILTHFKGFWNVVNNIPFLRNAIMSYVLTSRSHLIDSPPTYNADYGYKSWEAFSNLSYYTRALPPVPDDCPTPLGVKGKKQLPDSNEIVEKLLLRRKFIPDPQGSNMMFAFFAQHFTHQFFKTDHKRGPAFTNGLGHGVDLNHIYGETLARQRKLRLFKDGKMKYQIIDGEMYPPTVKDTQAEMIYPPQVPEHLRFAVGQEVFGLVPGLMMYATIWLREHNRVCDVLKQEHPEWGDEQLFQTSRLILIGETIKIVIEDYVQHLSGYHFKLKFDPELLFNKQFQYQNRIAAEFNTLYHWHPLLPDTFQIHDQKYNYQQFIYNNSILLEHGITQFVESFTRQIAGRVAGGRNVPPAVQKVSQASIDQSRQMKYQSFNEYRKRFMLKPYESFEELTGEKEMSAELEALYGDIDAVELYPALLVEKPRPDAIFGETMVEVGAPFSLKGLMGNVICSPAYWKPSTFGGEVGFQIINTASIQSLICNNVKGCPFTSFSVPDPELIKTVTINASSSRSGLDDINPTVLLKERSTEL

[2] = target: Prostaglandin G/H synthase 1 (Homo sapiens) (UniProt P23219); test: Inhibition of COX1 at 100 ug/mL
Sequence of Prostaglandin G/H synthase 1 (Homo sapiens) (P23219 whole entry): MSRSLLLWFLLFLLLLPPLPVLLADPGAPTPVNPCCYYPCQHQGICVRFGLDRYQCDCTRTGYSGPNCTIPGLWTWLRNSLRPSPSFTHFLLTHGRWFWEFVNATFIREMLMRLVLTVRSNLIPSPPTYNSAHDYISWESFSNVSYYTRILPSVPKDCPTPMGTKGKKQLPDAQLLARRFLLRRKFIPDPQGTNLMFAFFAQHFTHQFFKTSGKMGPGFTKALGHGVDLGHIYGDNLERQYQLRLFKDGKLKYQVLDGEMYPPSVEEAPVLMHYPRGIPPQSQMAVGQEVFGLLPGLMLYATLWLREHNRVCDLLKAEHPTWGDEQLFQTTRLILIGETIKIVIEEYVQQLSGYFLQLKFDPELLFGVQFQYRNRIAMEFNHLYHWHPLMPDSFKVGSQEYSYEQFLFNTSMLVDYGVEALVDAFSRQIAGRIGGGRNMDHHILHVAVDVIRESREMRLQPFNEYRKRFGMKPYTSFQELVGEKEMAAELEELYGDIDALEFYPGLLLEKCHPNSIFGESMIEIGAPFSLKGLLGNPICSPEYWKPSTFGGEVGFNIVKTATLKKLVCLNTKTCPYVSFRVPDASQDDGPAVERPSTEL

[3] = Cytotoxicity against human HCT 116 cells by MTT assay; format: functional
NCI-H460 = test: Cytotoxicity against human NCI-H460 cells by MTT assay; format: functional
AGS = test: Cytotoxicity against human AGS cells by MTT assay; format: functional
MCF7 = test: Cytotoxicity against human MCF7 cells by MTT assay; format: functional
SF-268 = test: Cytotoxicity against human SF-268 cells by MTT assay; format: functional

inhibition [1]: 60% | inhibition [2]: 65%
Structure (SMILES): CC1=C(CO)C(=O)O[C@@H]([C@@H](C)[C@H]2CC[C@H]3[C@@H]4C[C@H](S[C@H]5C[C@H]6[C@@H]7CC[C@H]([C@H](C)[C@H]8CC(C)=C(CO)C(=O)O8)[C@@]7(C)CC[C@@H]6[C@@]6(C)C(=O)C=C[C@H](O)[C@@]56O)[C@]5(O)[C@@H](O)C=CC(=O)[C@]5(C)[C@H]4CC[C@]23C)C1 [ASHWAGANDHANOLIDE]
IG50 [3]: 1.25 µg/mL | IG50 (NCI-H460): 1.48 µg/mL | IG50 (AGS): 0.43 µg/mL | IG50 (MCF7): 1.45 µg/mL | IG50 (SF-268): 0.84 µg/mL
